Among the data in patent US7064124B2, “NF-κB inhibitor containing substituted benzoic acid derivative as active ingredient” (Daiichi Suntory Pharma Co., Ltd., priority 2001, dated 2006) are melting point and IC50 values, retold here.

Structures are written as SMILES. Converted amounts (≈) assume the structure as drawn.

One data set deals with NF-κB. The data set can be described thus: NF-κB luciferase reporter assay in A549/NF-κBLuc cells stimulated with IL-1β. In kind it is cell-based, human. The conditions noted are these: Homo sapiens, A549, A549/NF-κBLuc cells; compound added 1 hour before IL-1β, then 3 hours incubation; luciferase activity; read-out: NF-κB Inhibitory Activity (IC50). The method, then: Effect on Human Lung Cancer-Derived Cell A549 (A549/NF-κBluc) Containing Stably Introduced Luciferase Plasmid (pNFκB-Luc, Stratagene. U.S.A.) Regulated by NF-κB Binding Sequence
Using Lipofectamine (Lifetech Oriental, Tokyo), pNFκB-Luc and pSV2neo (Clontech, U.S.A.) were co-transfected into the A549 cell (ATCC CCL185) and G418 sulfate (1 mg/ml, Lifetech Oriental) was added to the culture medium to select cells containing stably introduced pNFκB-Luc A549/NF-κBLuc.
The compound obtained in Examples each was added to A549/NF-κBLuc and one hour after that, IL-1β capable of activating NF-κB was added. The incubation was further continued for 3 hours.
NF-κB Inhibitory Activity (IC50) of Substituted Benzoic Acid Derivitives: […]
(In general: In a reporter assay the amount or activity of a reporter protein is the signal.)

Broadly, the melting point is the temperature of the solid-liquid transition. The term IC50 denotes the point on the concentration scale where inhibition reaches its midpoint. `COC1=C(OC)C(=O)C(Cc2ccc(O)c(C(=O)Nc3ccc(F)cc3)c2)=C(C)C1=O` [Example 142, N-[5-(5,6-Dimethoxy-3-methyl-1,4-benzoquinon-2-yl)methyl-2-hydroxybenzoyl]-4-fluoroaniline]: the melting point is 125 to 127 °C. The IC50 with NF-κB came out at 9 µg/mL (≈ 21.2 µM). In the case of `COC1=C(OC)C(=O)C(Cc2ccc(O)c(C(=O)Nc3ccccc3C(F)(F)F)c2)=C(C)C1=O` [Example 146, N-[5-(5,6-Dimethoxy-3-methyl-1,4-benzoquinon-2-yl)methyl-2-hydroxybenzoyl]-2-trifluoromethylaniline], the melting point was in the range of 111 to 114 °C. The IC50 in the data set on NF-κB is 11 µg/mL (≈ 23.1 µM). `CCOC(=O)c1ccc(NC(=O)c2cc(CC3=C(C)C(=O)C(OC)=C(OC)C3=O)ccc2OC(C)=O)cc1` [Example 147, Ethyl N-[5-(5,6-dimethoxy-3-methyl-1,4-benzoquinon-2-yl)methyl-2-acetoxybenzoyl]-4-aminobenzoate] gave a melting point of 154 to 156.5 °C. Also, the IC50 with NF-κB was found to be 19 µg/mL (≈ 36.4 µM). Compound `CCOC(=O)c1ccc(NC(=O)c2cc(CC3=C(C)C(=O)C(OC)=C(OC)C3=O)ccc2O)cc1` [Example 148] displayed a melting point of 176 to 179 °C. Also, the IC50 in the data set with NF-κB was 3 µg/mL (≈ 6.26 µM).

On to `COC1=C(OC)C(=O)C(Cc2ccc(OC(C)=O)c(C(=O)Nc3ccc(CC#N)cc3)c2)=C(C)C1=O` [Example 149, N-[5-(5,6-Dimethoxy-3-methyl-1,4-benzoquinon-2-yl)methyl-2-acetoxybenzoyl]-4-cyanomethylaniline], for which the melting point is 125 to 128 °C. In addition, the IC50 with NF-κB was 25 µg/mL (≈ 51.2 µM).

With `COC1=C(OC)C(=O)C(Cc2ccc(O)c(C(=O)Nc3ccc(CC#N)cc3)c2)=C(C)C1=O` [Example 150, N-[5-(5,6-Dimethoxy-3-methyl-1,4-benzoquinon-2-yl)methyl-2-hydroxybenzoyl]-4-cyanomethylaniline], the melting point was in the range of 164.5 to 166 °C. Moreover, the IC50 in the data set with NF-κB was 4 µg/mL (≈ 8.96 µM). In the case of `COC1=C(OC)C(=O)C(Cc2ccc(O)c(C(=O)Nc3cccnc3)c2)=C(C)C1=O` [Example 158, N-(Pyridin-3-yl)-5-(5,6-dimethoxy-3-methyl-1,4-benzoquinon-2-yl)methyl-2-hydroxybenzamide], the melting point lay within 119 to 122.5 °C. The half-maximal inhibitory concentration (IC50) in the data set on NF-κB is 7 µg/mL (≈ 17.1 µM). Compound `COC1=C(OC)C(=O)C(Cc2ccc(OCc3cccnc3)c(C(=O)NC3CCCCC3)c2)=C(C)C1=O` [Example 171, N-Cyclohexyl-5-(5,6-dimethoxy-3-methyl-1,4-benzoquinon-2-yl)methyl-2-(3-pyridylmethyloxy)benzamide] came in with a melting point of 115 to 118 °C. The concentration for half-maximal inhibition (IC50) with NF-κB worked out at 26 µg/mL (≈ 51.5 µM). `COC1=C(OC)C(=O)C(Cc2ccc(OC(C)=O)c(C(=O)Nc3ccc(S(=O)(=O)C(F)(F)F)cc3)c2)=C(C)C1=O` [Example 173, N-[5-(5,6-Dimethoxy-3-methyl-1,4-benzoquinon-2-yl)methyl-2-acetoxybenzoyl]-4-(trifluoromethylsulfonyl)aniline] returned a melting point of 84.5 to 87 °C. Besides, the IC50 with NF-κB is 9 µg/mL (≈ 15.5 µM).

On to `COC1=C(OC)C(=O)C(Cc2ccc(O)c(C(=O)Nc3ccc(S(=O)(=O)C(F)(F)F)cc3)c2)=C(C)C1=O` [Example 174, N-[5-(5,6-Dimethoxy-3-methyl-1,4-benzoquinon-2-yl)methyl-2-hydroxybenzoyl]-4-(trifluoromethylsulfonyl)aniline], for which the melting point is 223 to 225.5 °C. In addition, in the data set on NF-κB, the IC50 was found to be 6 µg/mL (≈ 11.1 µM). In the case of `COC1=C(OC)C(=O)C(Cc2cccc(C(=O)Nc3ccc(N4CCOCC4)cc3)c2O)=C(C)C1=O` [Example 179, N-[3-(5,6-Dimethoxy-3-methyl-1,4-benzoquinon-2-yl)methyl-2-hydroxybenzoyl]-4-morpholinoaniline], the melting point was 177.5 to 180.5 °C.

As for `COC1=C(OC)C(=O)C(Cc2ccc(O)c(C(=O)Nc3ccc(OC)nc3OC)c2)=C(C)C1=O` [Example 183, N-(2,6-Dimethoxypyridin-3-yl)-5-(5,6-dimethoxy-3-methyl-1,4-benzoquinon-2-yl)methyl-2-hydroxybenzamide], the melting point fell in the range of 119 to 121.5 °C.

`COC1=C(OC)C(=O)C(Cc2ccc(OC(C)=O)c(C(=O)Nc3ccc(C(=O)O)cc3)c2)=C(C)C1=O` [Example 189, N-[5-(5,6-Dimethoxy-3-methyl-1,4-benzoquinon-2-yl)methyl-2-acetoxybenzoyl]-4-aminobenzoic acid] had a melting point of 199 to 201.5 °C.

As for `COC1=C(OC)C(=O)C(Cc2ccc(O)c(C(=O)Nc3ccc(C(=O)O)cc3)c2)=C(C)C1=O` [Example 190, N-[5-(5,6-Dimethoxy-3-methyl-1,4-benzoquinon-2-yl)methyl-2-hydroxybenzoyl]-4-aminobenzoic acid], the melting point lay in the range of 257 to 260 °C.

Compound `COC1=C(OC)C(=O)C(Cc2ccc(O)c(C(=O)Nc3c(Cl)cc(OC(F)(F)F)cc3Cl)c2)=C(C)C1=O` [Example 192, N-[5-(5,6-Dimethoxy-3-methyl-1,4-benzoquinon-2-yl)methyl-2-hydroxybenzoyl]-2,6-dichloro-4-trifluoromethoxyaniline] had a melting point of 138 to 141 °C. Take `COC1=C(OC)C(=O)C(Cc2ccc(OC(C)=O)c(C(=O)Nc3ncccc3C(=O)O)c2)=C(C)C1=O` [Example 194, N-(3-Hydroxycarbonylpyridin-2-yl)-5-(5,6-dimethoxy-3-methyl-1,4-benzoquinon-2-yl)methyl-2-acetoxybenzamide]: the melting point lay in the range of 148 to 151 °C. On the same count and under the same terms, the result for `COC1=C(OC)C(=O)C(Cc2ccc(O)c(C(=O)Nc3ncccc3C(=O)O)c2)=C(C)C1=O` [Example 195, N-(3-Hydroxycarbonylpyridin-2-yl)-5-(5,6-dimethoxy-3-methyl-1,4-benzoquinon-2-yl)methyl-2-hydroxybenzamide] reads 134 to 136.5 °C. `COC1=C(OC)C(=O)C(Cc2ccc(OC(C)=O)c(C(=O)Nc3ccc(C(=O)O)cn3)c2)=C(C)C1=O` [Example 197, N-(5-Hydroxycarbonylpyridin-2-yl)-5-(5,6-dimethoxy-3-methyl-1,4-benzoquinon-2-yl)methyl-2-acetoxybenzamide]: the melting point was 123 to 125 °C.

`COC1=C(OC)C(=O)C(Cc2ccc(O)c(C(=O)Nc3ccc(C(=O)O)cn3)c2)=C(C)C1=O` [Example 198, N-(5-Hydroxycarbonylpyridin-2-yl)-5-(5,6-dimethoxy-3-methyl-1,4-benzoquinon-2-yl)methyl-2-hydroxybenzamide] gave a melting point of 238 to 241 °C.

For `COC1=C(OC)C(=O)C(Cc2ccc(O)c(C(=O)Nc3ccc(-n4ccnc4)cc3)c2)=C(C)C1=O` [Example 209, N-[5-(5,6-Dimethoxy-3-methyl-1,4-benzoquinon-2-yl)methyl-2-hydroxybenzoyl]-4-(imidazol-1-yl)aniline], the melting point fell in the range of 119 to 121.5 °C. As for `COC1=C(OC)C(=O)C(Cc2ccc(O)c(C(=O)Nc3ccc(-c4ccn[nH]4)cc3)c2)=C(C)C1=O` [Example 211, N-[5-(5,6-Dimethoxy-3-methyl-1,4-benzoquinon-2-yl)methyl-2-hydroxybenzoyl]-4-(1H-pyrazol-3-yl)aniline], the melting point was in the range of 182 to 185.5 °C.

`COC1=C(OC)C(=O)C(Cc2ccc(OC(C)=O)c(C(=O)Nc3cccnc3OC)c2)=C(C)C1=O` [Example 215, N-(2-Methoxypyridin-3-yl)-5-(5,6-dimethoxy-3-methyl-1,4-benzoquinon-2-yl)methyl-2-acetoxybenzamide] yielded a melting point of 111 to 112 °C.

`COC1=C(OC)C(=O)C(Cc2ccc(OC(C)=O)c(C(=O)Nc3cc(OC)ccc3OC)c2)=C(C)C1=O` [Example 219, N-[5-(5,6-Dimethoxy-3-methyl-1,4-benzoquinon-2-yl)methyl-2-acetoxybenzoyl]-2,5-dimethoxyaniline]: the melting point was in the range of 118.5 to 120 °C.

Turning to `COC1=C(OC)C(=O)C(Cc2ccc(OC(C)=O)c(C(=O)Nc3ccnc(OC)c3)c2)=C(C)C1=O` [Example 230, N-(2-Methoxypyridin-4-yl)-5-(5,6-dimethoxy-3-methyl-1,4-benzoquinon-2-yl)methyl-2-acetoxybenzamide], the melting point is 138 to 140.5 °C. On to `COC1=C(OC)C(=O)C(Cc2ccc(O)c(C(=O)Nc3ccnc(OC)c3)c2)=C(C)C1=O` [Example 231, N-(2-Methoxypyridin-4-yl)-5-(5,6-dimethoxy-3-methyl-1,4-benzoquinon-2-yl)methyl-2-hydroxybenzamide], for which the melting point lay within 218 to 220.5 °C. Still for that read-out and setting: then `CC(=O)Oc1ccc(CC2=C(C)C(=O)C(C)=C(C)C2=O)cc1C(=O)O` [Example 233, 5-(3,5,6-Trimethyl-1,4-benzoquinon-2-yl)methyl-2-acetoxybenzoic acid], with 157 to 159.5 °C. Same read-out and setting: the result for `CC(=O)Oc1ccc(CC2=C(C)C(=O)C(C)=C(C)C2=O)cc1C(=O)Nc1ccc(C(F)(F)F)cc1` [Example 234, N-[5-(3,5,6-Trimethyl-1,4-benzoquinon-2-yl)methyl-2-acetoxybenzoyl]-4-trifluoromethylaniline] reads 180 to 181 °C; that for `CC(=O)Oc1ccc(CC2=C(C)C(=O)C(C)=C(C)C2=O)cc1C(=O)Nc1cccnc1Cl` [Example 236, N-(2-Chloropyridin-3-yl)-5-(3,5,6-trimethyl-1,4-benzoquinon-2-yl)methyl-2-acetoxybenzamide], 130 to 131 °C. The compound `CC1=C(C)C(=O)C(Cc2ccc(O)c(C(=O)Nc3ccncc3)c2)=C(C)C1=O` [Example 238, N-(Pyridin-4-yl)-5-(3,5,6-trimethyl-1,4-benzoquinon-2-yl)methyl-2-hydroxybenzamide] registered a melting point of 245 to 247 °C.
